Like-named read-outs stand apart in the source and are kept apart here.
Key:
[1] = system: CYP1A2; assay: CYP induction, in situ catalytic activity, human hepatocytes; type: in vitro ADME
Text: Rifampicin as a positive control and solvent (0.1% DMSO) vehicle control were also included. The acceptance criteria for CYP induction was ≥ 2-fold induction for significant CYP activity, while the acceptance criteria for CYP mRNA was ≥ 4-fold for significant CYP induction.

[2] = target: T1, MATE1 (Homo sapiens, UniProt Q96FL8); assay: Transporter mediated assay (substrate/inhibitor), MDCK-II cells; type: in vitro ADME
T1 construct: expressed in transfected cells; host or cells: MDCK-II cells
T1 sequence (Q96FL8 1-570): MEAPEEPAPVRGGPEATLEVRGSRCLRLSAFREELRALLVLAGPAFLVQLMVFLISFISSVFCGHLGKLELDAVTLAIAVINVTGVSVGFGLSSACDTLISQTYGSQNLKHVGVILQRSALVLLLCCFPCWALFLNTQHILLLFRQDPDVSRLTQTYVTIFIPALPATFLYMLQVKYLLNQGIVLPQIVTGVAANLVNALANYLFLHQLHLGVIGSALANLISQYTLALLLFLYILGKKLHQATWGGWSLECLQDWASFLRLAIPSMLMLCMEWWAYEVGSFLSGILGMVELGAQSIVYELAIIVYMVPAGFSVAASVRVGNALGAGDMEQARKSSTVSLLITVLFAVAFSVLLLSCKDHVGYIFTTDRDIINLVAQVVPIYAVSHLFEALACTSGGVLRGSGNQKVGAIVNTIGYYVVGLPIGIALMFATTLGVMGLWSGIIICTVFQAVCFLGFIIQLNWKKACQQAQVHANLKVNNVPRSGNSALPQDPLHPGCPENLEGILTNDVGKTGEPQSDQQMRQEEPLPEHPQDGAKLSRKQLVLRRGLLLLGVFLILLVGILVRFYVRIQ
Experimental: The MDCK-II cells were treated to express the transporter of interest. The transport of each probe substrate was determined by radiometric detection (Fig 1 in S1 File). […] For the uptake assay, the net transporter-mediated uptake-rate (V) of the substrate by each SLC transporter was calculated as follows: Transporter–mediatedupdaterate(pmol/min/cm^2)=(Cellularaccumulationincellsexpressingthetransporter)−(Meancellularaccumulationincontrolcells)/Surfacearea×incubationtime
Fold of activity and percent inhibition were determined as follows: Foldofactivity=(Meanuptakerate)transporterexpressingcells/(Meanuptakerate)controlcells Percentinhibition=100−100×(Transport‐mediatedupdaterate)withinhibitor/(Transport‐mediatedupdaterate)vehiclecontrol

[3] = target: T2, BCRP (Homo sapiens, UniProt Q9UNQ0); assay: as above; type: in vitro ADME
T2 construct: expressed in transfected cells; host or cells: MDCK-II cells
T2 sequence (Q9UNQ0 1-655): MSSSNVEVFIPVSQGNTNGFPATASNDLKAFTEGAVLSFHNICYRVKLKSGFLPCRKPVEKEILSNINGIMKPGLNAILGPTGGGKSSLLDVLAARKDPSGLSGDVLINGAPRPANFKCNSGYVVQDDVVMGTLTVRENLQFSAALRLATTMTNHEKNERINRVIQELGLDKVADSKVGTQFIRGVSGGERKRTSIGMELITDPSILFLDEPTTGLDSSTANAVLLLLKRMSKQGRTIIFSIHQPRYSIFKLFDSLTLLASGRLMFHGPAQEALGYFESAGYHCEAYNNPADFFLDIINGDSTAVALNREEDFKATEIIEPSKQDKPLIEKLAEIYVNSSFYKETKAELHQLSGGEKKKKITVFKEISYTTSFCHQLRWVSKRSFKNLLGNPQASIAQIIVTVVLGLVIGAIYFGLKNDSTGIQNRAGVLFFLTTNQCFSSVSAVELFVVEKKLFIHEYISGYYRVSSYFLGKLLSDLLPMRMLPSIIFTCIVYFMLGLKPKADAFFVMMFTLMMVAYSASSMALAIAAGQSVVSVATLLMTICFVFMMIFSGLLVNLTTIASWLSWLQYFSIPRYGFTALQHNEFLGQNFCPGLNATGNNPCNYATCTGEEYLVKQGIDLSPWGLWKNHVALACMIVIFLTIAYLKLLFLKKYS
Experimental: The MDCK-II cells were treated to express the transporter of interest.
For BCRP and P-gp, the apparent permeability Papp and Efflux Ratio (ER) were calculated [16]. Net basal (B) to apical (A) flux (B → A) of the substrate transport (pmol/min/cm^2) by BCRP or P-gp was calculated by subtracting A → B flux from B → A flux.

[4] = target: T3, SRPK2 (Homo sapiens, UniProt P78362); assay: KINOMEscan binding (% Ctrl, Kd)
T3 construct: made in house; host or cells: E. coli BL21-derived host (T7 phage) or HEK-293
Experimental: Briefly, E. coli host derived from the BL21 strain were grown to log-phase and infected with kinase-tagged T7 phage and incubated with shaking at 32°C until lysis. The lysates were centrifuged and filtered to remove cell debris. The remaining kinases were produced in HEK-293 cells and subsequently tagged with DNA for qPCR detection. Streptavidin-coated magnetic beads were treated with biotinylated small molecule ligands to generate affinity resins for kinase assays. The liganded beads were blocked with excess biotin and washed to remove unbound ligand and to reduce non-specific phage binding. […] Selectivity Score (S-score) was a quantitative measure of compound selectivity. […] The binding constants (Kds) were also determined with a standard dose-response curve using the Hill equation and Levenberg-Marquardt algorithm [24, 25].

[5] = target: CYP3A4 (Homo sapiens, UniProt P08684); assay: in vitro; conditions: microsomes
[6] = Stability in the absence of hepatocytes; conditions: no hepatocytes
Experimental: CYP3A4 substrate Midazolam (10 μM) was prepared and incubated in the same manner. […] In addition, in vitro half-life (t1/2, min) and intrinsic clearance (CLint, μl/min/10^6 cells) were calculated [10, 11].

[7] = Metabolic stability in liver microsomes; conditions: monkey, pH 7.4
[8] = CYP activity (% of Control) 3A4 (Midazolam)
[9] = CYP activity (% of Control) 3A4 (Testosterone)
[10] = heat-inactivated liver microsomes

T3 sequence (P78362 whole entry): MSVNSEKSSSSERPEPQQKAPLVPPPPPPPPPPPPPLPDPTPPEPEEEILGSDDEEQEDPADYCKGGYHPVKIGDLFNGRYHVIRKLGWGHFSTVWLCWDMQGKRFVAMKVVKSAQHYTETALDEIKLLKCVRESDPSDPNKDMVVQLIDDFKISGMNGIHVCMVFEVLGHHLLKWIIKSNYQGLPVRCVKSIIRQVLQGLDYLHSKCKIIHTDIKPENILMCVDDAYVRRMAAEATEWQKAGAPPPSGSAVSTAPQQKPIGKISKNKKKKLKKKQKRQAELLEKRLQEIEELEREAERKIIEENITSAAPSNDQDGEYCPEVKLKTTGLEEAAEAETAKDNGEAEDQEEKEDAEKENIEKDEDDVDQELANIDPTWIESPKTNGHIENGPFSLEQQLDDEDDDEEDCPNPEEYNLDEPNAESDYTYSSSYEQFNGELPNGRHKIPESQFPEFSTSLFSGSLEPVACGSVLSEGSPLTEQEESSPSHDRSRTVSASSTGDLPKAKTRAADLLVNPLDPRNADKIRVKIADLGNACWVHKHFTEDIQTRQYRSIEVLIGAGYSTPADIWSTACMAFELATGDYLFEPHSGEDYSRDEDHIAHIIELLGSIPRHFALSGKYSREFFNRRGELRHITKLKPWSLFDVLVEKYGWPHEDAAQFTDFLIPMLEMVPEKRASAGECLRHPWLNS
Sequence of CYP3A4 (P08684 2-503): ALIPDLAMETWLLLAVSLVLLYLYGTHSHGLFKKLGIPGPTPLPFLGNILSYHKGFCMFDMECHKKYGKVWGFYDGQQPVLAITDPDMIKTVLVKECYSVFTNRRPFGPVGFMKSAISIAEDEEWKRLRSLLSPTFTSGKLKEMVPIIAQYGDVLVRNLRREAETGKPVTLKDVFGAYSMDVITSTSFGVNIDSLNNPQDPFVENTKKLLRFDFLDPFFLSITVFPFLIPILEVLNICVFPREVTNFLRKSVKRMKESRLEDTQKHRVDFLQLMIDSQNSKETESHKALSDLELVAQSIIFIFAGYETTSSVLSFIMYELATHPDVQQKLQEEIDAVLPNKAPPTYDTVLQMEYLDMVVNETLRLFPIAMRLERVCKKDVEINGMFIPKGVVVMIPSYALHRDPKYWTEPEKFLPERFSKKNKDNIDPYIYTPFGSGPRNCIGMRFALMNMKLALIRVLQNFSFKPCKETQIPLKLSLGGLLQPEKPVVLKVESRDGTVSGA

## CCc1cc(Cl)c(OC)c(N2CCN(CC(O)CCNC(=O)c3cc4ccccc4[nH]3)CC2)c1 (centres unmarked) [R-VK4-116, N-(4-(4-(3-chloro-5-ethyl-2-methoxyphenyl)piperazin-1-yl)-3-hydroxybutyl)-1H-indole-2-carboxamide]
[1]; Lot 336, 0.01 µM
  CYP1A2 activity, Fold of Vehicle Control: 0.96 fold
  Phenacetin-O- deethylation: 1.1 pmol/min/106 cells
[1]; Lot 336, 0.1 µM
  CYP1A2 activity, Fold of Vehicle Control: 0.96 fold
  Phenacetin-O- deethylation: 1.1 pmol/min/106 cells
[1]; Lot 336, 1 µM
  CYP1A2 activity, Fold of Vehicle Control: 1.2 fold
  Phenacetin-O- deethylation: 1.4 pmol/min/106 cells
[1]; Lot 336, 3 µM
  CYP1A2 activity, Fold of Vehicle Control: 1.5 fold
  Phenacetin-O- deethylation: 1.8 pmol/min/106 cells
[1]; Lot 336, 5 µM
  CYP1A2 activity, Fold of Vehicle Control: 1.6 fold
  Phenacetin-O- deethylation: 1.8 pmol/min/106 cells
[1]; Lot 336, 10 µM
  CYP1A2 activity, Fold of Vehicle Control: 1.5 fold
[1]; Lot 348B, 0.01 µM
  CYP1A2 activity, Fold of Vehicle Control: 0.92 fold
[1]; Lot 348B, 0.1 µM
  CYP1A2 activity, Fold of Vehicle Control: 0.91 fold
[1]; Lot 348B, 1 µM
  CYP1A2 activity, Fold of Vehicle Control: 0.99 fold
[1]; Lot 348B, 3 µM
  CYP1A2 activity, Fold of Vehicle Control: 1.1 fold
[1]; Lot 348B, 5 µM
  CYP1A2 activity, Fold of Vehicle Control: 1.1 fold
[1]; Lot 348B, 10 µM
  CYP1A2 activity, Fold of Vehicle Control: 1.1 fold
[1]; Lot 399, 0.01 µM
  CYP1A2 activity, Fold of Vehicle Control: 1.1 fold
  Phenacetin-O- deethylation: 8.8 pmol/min/106 cells
[1]; Lot 399, 0.1 µM
  CYP1A2 activity, Fold of Vehicle Control: 1.1 fold
  Phenacetin-O- deethylation: 9.4 pmol/min/106 cells
[1]; Lot 399, 1 µM
  CYP1A2 activity, Fold of Vehicle Control: 1.1 fold
  Phenacetin-O- deethylation: 9.3 pmol/min/106 cells
[1]; Lot 399, 3 µM
  CYP1A2 activity, Fold of Vehicle Control: 1.2 fold
  Phenacetin-O- deethylation: 9.8 pmol/min/106 cells
[1]; Lot 399, 5 µM
  CYP1A2 activity, Fold of Vehicle Control: 1.2 fold
  Phenacetin-O- deethylation: 10 pmol/min/106 cells
[1]; Lot 399, 10 µM
  CYP1A2 activity, Fold of Vehicle Control: 1.1 fold
  Phenacetin-O- deethylation: 9.0 pmol/min/106 cells
[2]; MATE1, 1 μM, transporter cells vs control cells
  fold difference in mean uptake rate (substrate test): < 2 fold
[2]; human, polarized monolayer of MDCK-II cells expressing MATE1, MATE1, 0.1% BSA, 10 μM
  inhibition at 10 µM: 19.4 ± 7.57%
[3]; BCRP, substrate test, 1 µM
  Papp A→B at 1 µM: < 0.2 ×10⁻⁶ cm/s
  Papp B→A at 1 µM: < 0.1 ×10⁻⁶ cm/s
[3]; probe prazosin 2 μM
  inhibition at 10 µM: 54 ± 1.46%
[4]; 11-point curve 0.001 to 10 μM, read-out: binding constant (Kd)
  Kd: > 10 µM
[4]; read-out: %Control
  remaining binding at 1 µM: < 35%
[4]; read-out: Gene (S-score with % control): SRPK2
  remaining binding at 1 µM: 21%
[5]; [8]
  activity at 20 min, 0.1 µM: 97.5 ± 3.9%
  activity at 20 min, 0.3 µM: 93.9 ± 2.4%
  activity at 20 min, 1 µM: 95.3 ± 0.9%
  activity at 20 min, 3 µM: 95.6 ± 4.2%
  activity at 20 min, 10 µM: 96.9 ± 2%
  activity at 20 min, 30 µM: 92.2 ± 0.7%
  activity at 20 min, 60 µM: 92.6 ± 1%
  activity at 20 min, 100 µM: 96.9 ± 3.2%
[5]; [9]
  activity at 20 min, 0.1 µM: 96.5 ± 3.6%
  activity at 20 min, 0.3 µM: 93.2 ± 3.8%
  activity at 20 min, 1 µM: 94.2 ± 2.4%
  activity at 20 min, 3 µM: 92.8 ± 4.8%
  activity at 20 min, 10 µM: 93.9 ± 2.1%
  activity at 20 min, 30 µM: 94.2 ± 1.5%
  activity at 20 min, 60 µM: 92.1 ± 1.1%
  activity at 20 min, 100 µM: 95.5 ± 3.7%
[6]; 0.5 μM, 0 min
  % remaining Vs T = 0 min: 100.0%
[6]; 0.5 μM, 30 min
  % remaining Vs T = 0 min: 86.2%
[6]; 0.5 μM, 60 min
  % remaining Vs T = 0 min: 81.6%
[6]; 0.5 μM, 90 min
  % remaining Vs T = 0 min: 79.9%
[6]; 0.5 μM, 120 min
  % remaining Vs T = 0 min: 78.4%
[6]; 10 μM, 0 min
  % remaining Vs T = 0 min: 100.0%
[6]; 10 μM, 30 min
  % remaining Vs T = 0 min: 92.9%
[6]; 10 μM, 60 min
  % remaining Vs T = 0 min: 87.5%
[6]; 10 μM, 90 min
  % remaining Vs T = 0 min: 87.9%
[6]; 10 μM, 120 min
  % remaining Vs T = 0 min: 77.3%
[7]; [10]
  remaining at 0 h, 1 μM: 100%
  remaining at 0 h, 10 μM: 100%
  remaining at 2 h, 1 μM: 90%
  remaining at 2 h, 10 μM: 89.9%
[7]; liver microsomes
  remaining at 0 h, 1 μM: 100%
  remaining at 0 h, 10 μM: 100%
  remaining at 0.5 h, 1 μM: 32%
  remaining at 0.5 h, 10 μM: 60.1%
  remaining at 1 h, 1 μM: 21.2%
  remaining at 1 h, 10 μM: 46.5%
  remaining at 1.5 h, 1 μM: 17.5%
  remaining at 1.5 h, 10 μM: 42.1%
  remaining at 2 h, 1 μM: 15%
  remaining at 2 h, 10 μM: 39.7%

— publication PMC11649115, “In vitro safety evaluation of dopamine D3R antagonist, R-VK4-116, as a potential medication for the treatment of opioid use disorder” (PLOS ONE, 2024)
